Measurements taken from US12624057B2, “Bisphosphonate quinolone conjugates and uses thereof” (BIOVINC, LLC, priority 2016, dated 2026).
Entries after “also recorded” stand apart in the source; their conditions may differ. Read-outs that look alike come from different tables or passages of the source.

Key:
[1] = tested on: biofilms of P. aeruginosa strain ATCC-15442; assay: Preformed biofilms on HA discs, P. aeruginosa; assay type: cell-based, Pseudomonas aeruginosa
Description: (§1) Antimicrobial susceptibility testing of BP-ciprofloxacin against preformed biofilms of S. aureus strain ATCC-6538 and P. aeruginosa strain ATCC-15442: Strains cultured on appropriate agar plates (Columbia agar plate for S. aureus; MacConkey agar plate for P. aeruginosa) were transferred to liquid microbiological media and incubated for 24 h/37° C. under aerobic conditions. After incubation, strains were diluted to the density of 1 MF. The microbial dilutions were introduced to wells of 24-well plates containing HA discs as a substrate, or simply to polystyrene wells where the bottom surface of the wells served as the substrate for biofilm development. Strains were incubated at 37° C. for 4 hrs. Next, the microbe-containing solutions were removed from the wells. The surfaces, HA discs and polystyrene plates, were gently rinsed to leave adhered cells and to remove planktonic or loosely-bound microbes. Surfaces prepared in this manner were immersed in fresh TSB medium containing 0.24-125 mg/L of BP-ciprofloxacin conjugate. After 24 hrs of incubation at 37° C. the surfaces were rinsed using physiological saline solution and transferred to 1 mL of 0.5% saponin (Sigma-Aldrich, St Louis, MO). The surfaces were vortex-mixed vigorously for 1 minute to detach cells. Subsequently, all microbial suspensions were diluted 10 to 10^9 times. Each dilution ([…]) was cultured on the appropriate stable medium (MacConkey, Columbia for P. aeruginosa and S. aureus, respectively) and incubated at 37-C for 24 hours. After this time, the microbial colonies were counted and the number of cells forming biofilm was assessed. Results were presented as the mean number of CFU per square millimeter surface±standard error of the mean. To estimate the exact surface area of HA discs, x-ray tomographic analysis was applied. For estimation of the area of test plate bottoms, the equation for circle area: πr2 was applied.
Antimicrobial susceptibility testing of 6 against preformed biofilms of S. aureus strain ATCC-6538 and P. aeruginosa strain ATCC-15442: Strains cultured on appropriate agar plates (Columbia agar plate for S. aureus; MacConkey agar plate for P. aeruginosa) were transferred to liquid microbiological media and incubated for 24 hrs/37° C. under aerobic conditions. After incubation, strains were diluted to the density of 1 MF. The microbial dilutions were introduced to wells of 24-well plates containing HA discs as a substrate, or simply to polystyrene wells where the bottom surface of the wells served as the substrate for biofilm development. Strains were incubated at 37° C. for 4 hrs. Next, the microbe-containing solutions were removed from the wells. The surfaces, HA discs and polystyrene plates, were gently rinsed to leave adhered cells and to remove planktonic or loosely-bound microbes. […] After 24 hrs of incubation at 37° C. the surfaces were rinsed using physiological saline solution and transferred to 1 mL of 0.5% saponin (Sigma-Aldrich, St Louis, MO). The surfaces were vortex-mixed vigorously for 1 minute to detach cells. Subsequently, all microbial suspensions were diluted 10-1 to 10-9 times. Each dilution ([…]) was cultured on the appropriate stable medium (MacConkey, Columbia for P. aeruginosa and S. aureus, respectively) and incubated at 37° C. for 24 hrs. After this time, the microbial colonies were counted and the number of cells forming biofilm was assessed. Results were presented as the mean number of CFU per square millimeter surface±standard error of the mean. […]

[2] = tested on: biofilms of S. aureus strain ATCC-6538; assay: Preformed biofilms on HA discs, S. aureus; assay type: cell-based, Staphylococcus aureus; settings: for bactericidal activity / reduction of CFUs against established biofilm (in words): HA as substrate
Description: as §1
Antimicrobial susceptibility testing of 6 against preformed biofilms of S. aureus strain ATCC-6538 and P. aeruginosa strain ATCC-15442: Strains cultured on appropriate agar plates (Columbia agar plate for S. aureus; MacConkey agar plate for P. aeruginosa) were transferred to liquid microbiological media and incubated for 24 hrs/37° C. under aerobic conditions. After incubation, strains were diluted to the density of 1 MF. The microbial dilutions were introduced to wells of 24-well plates containing HA discs as a substrate, or simply to polystyrene wells where the bottom surface of the wells served as the substrate for biofilm development. Strains were incubated at 37° C. for 4 hrs. Next, the microbe-containing solutions were removed from the wells. The surfaces, HA discs and polystyrene plates, were gently rinsed to leave adhered cells and to remove planktonic or loosely-bound microbes. […] After 24 hrs of incubation at 37° C. the surfaces were rinsed using physiological saline solution and transferred to 1 mL of 0.5% saponin (Sigma-Aldrich, St Louis, MO). The surfaces were vortex-mixed vigorously for 1 minute to detach cells. Subsequently, all microbial suspensions were diluted 10-1 to 10-9 times. Each dilution ([…]) was cultured on the appropriate stable medium (MacConkey, Columbia for P. aeruginosa and S. aureus, respectively) and incubated at 37° C. for 24 hrs. After this time, the microbial colonies were counted and the number of cells forming biofilm was assessed. Results were presented as the mean number of CFU per square millimeter surface±standard error of the mean. To calculate the surface area of HA discs, x-ray tomographic analysis was applied. For estimation of the area of test plate bottoms, the equation for circle area: πr^2 was applied.

[3] = tested on: Aggregatibacter actinomycetemcomitans biofilms on titanium implants; assay: Rat jawbone peri-implant osteomyelitis model, first animal experiment; assay type: in vivo, Sprague-Dawley rats; settings: for activity compared with ciprofloxacin in multiple doses (in words): conjugate 10 mg/kg single dose versus ciprofloxacin 30 mg/kg total; for efficacy (in words): single dose 0.1 and 1 mg/kg
Description: Since this BP-ciprofloxacin conjugate is novel and has not been tested in vivo, we performed an initial safety and efficacy study in an animal model of peri-implant osteomyelitis. This model is a unique in-house jawbone peri-implant osteomyelitis model that was developed specifically for translational value to study biofilm-mediated disease and host response in vivo (Freire, et al, Development of animal model for Aggregatibacter actinomycetemcomitans biofilm-mediated oral osteolytic infection: a preliminary study. J Periodontol 2011; 82:778-89). […] After biofilms are established on the implants in vitro, they are surgically transferred to the jawbone of each rat. Animals are anesthetized, the cheeks are retracted and a transmucosal osteotomy is performed so implants can be manually inserted into the osteotomy and secured. Two biofilm-inoculated implants are placed in each rat (n=12 rats and 24 implants) in the palatal bone bilaterally.
To determine appropriate dosing concentrations, we calculated approximate initial doses for the conjugate based on previous studies and pharmacokinetic data using similar target and release strategies and also rodents (Houghton, et al., Linking bisphosphonates to the free amino groups in fluoroquinolones: preparation of osteotropic prodrugs for the prevention of osteomyelitis. J Med Chem 2008; 51:6955-69; Morioka, et al., Design, synthesis, and biological evaluation of novel estradiol-bisphosphonate conjugates as bone-specific estrogens. Bioorg Med Chem 2010; 18:1143-8). We expected that increasing doses of 0.1, 1 and 10 mg/kg BP-ciprofloxacin molar equivalents will allow us to determine antimicrobial activity in 2 test animals per group based on sample size estimations and previous experience with the animal model (Freire, et al, Development of animal model for Aggregatibacter actinomycetemcomitans biofilm-mediated oral osteolytic infection: a preliminary study. J Periodontol 2011; 82:778-89). Animals were dosed via intraperitoneal injection under general anesthesia, and all compounds were constituted in sterile physiological injectable saline at appropriate pH. One week after pharmacotherapy, all animals were sacrificed and resection of peri-implant tissues was performed, and tissues were immediately homogenized and processed for quantitative assessment of microbial load. Animals were monitored throughout the study period for local or systemic adverse effects of pharmacotherapy.
This animal model is an in-house jawbone peri-implant osteomyelitis model designed specifically to study biofilm-mediated disease and host response in vivo (Freire, et al, Development of animal model for Aggregatibacter actinomycetemcomitans biofilm-mediated oral osteolytic infection: a preliminary study. J Periodontol 2011; 82:778-89). […] After biofilms were established on the implants in vitro, they were surgically transferred to the jawbone of each rat. For surgery, animals were anesthetized with 4% isoflurane inhalant initially followed by intraperitoneal injection of ketamine (80-90 mg/kg) plus xylazine (5-10 mg/kg). Then local anesthesia was given via infiltration injection of bupivicaine 0.25% at the surgical site. Buprenorphine sustained release (1.0-1.2 mg/kg) was then given subcutaneously as preemptive analgesia before making initial incisions. Once anesthetized, the buccal mucosa of each rat was retracted and a transmucosal osteotomy was performed with a pilot drill into the alveolar ridge in the natural diastema of the anterior palate. Implants were then manually inserted into the osteotomy and secured into the bone until the platform is at mucosal level.

[4] = HA discs as substrate (Example 1)
[5] = HA discs as substrate (Example 5)
[6] = conjugate, single dose 10 mg/kg intraperitoneal
[7] = ciprofloxacin, 10 mg/kg 3×/week (30 mg/kg total)

SMILES: O=C(O)c1cn(C2CC2)c2cc(N3CCN(C(=O)Oc4ccc(CC(P(=O)(O)O)P(=O)(O)O)cc4)CC3)c(F)cc2c1=O [Compound 6, 1-cyclopropyl-7-(4-((4-(2,2-diphosphonoethyl)phenoxy)carbonyl)piperazin-1-yl)-6-fluoro-4-oxo-1,4-dihydroquinoline-3-carboxylic acid]
- concentration at which bactericidal ([1]; acidic and basic conditions (Example 1)): 50 µg/mL
- concentration at which bactericidal ([1]; acidic and physiological conditions (Example 5)): 50 µg/mL
- activity against P. aeruginosa biofilm (in words) ([1]; listed as conjugate): improved bactericidal activity in basic conditions; also recorded: improved bactericidal activity in physiological conditions
- concentration at which most effective ([1]; physiological pH, also effective at acidic pH): 8 µg/mL
- bactericidal activity / reduction of CFUs against established biofilm (in words) [2]: statistically significant (p<0.05, Kruskal-Wallis test) bactericidal activity
- bactericidal activity / reduction of CFUs against established biofilm (in words) ([2]; listed as BP-ciprofloxacin): statistically significant bactericidal activity
- bactericidal activity / reduction of CFUs against established biofilm (in words) ([2]; listed as conjugate): statistically significant bactericidal activity and reduction of colony forming units
- MBIC50 [2, 4]: 8 µg/mL
- MBIC90 [2, 4]: 50 µg/mL
- MBIC50 [2, 5]: 16 µg/mL
- MBIC90 [2, 5]: 100 µg/mL
- greater bactericidal activity than multiple dosing of ciprofloxacin ([3]; conjugate 10 mg/kg single dose): ~1 log
- activity compared with ciprofloxacin in multiple doses (in words) [3]: nearly an order of magnitude greater activity than ciprofloxacin alone
- activity compared with ciprofloxacin in multiple doses (in words) ([3]; listed as BCC): an order of magnitude greater activity than the parent antibiotic ciprofloxacin alone; also recorded: approximately as effective as ciprofloxacin given at 30 mg/kg total dose
- activity compared with ciprofloxacin in multiple doses (in words) ([3]; listed as BP-ciprofloxacin): more than an order of magnitude greater activity than ciprofloxacin alone; also recorded: superior to multiple dosing of the parent antibiotic ciprofloxacin
- bacterial killing / bactericidal activity [3, 6]: 99%
- reduction of bacterial load versus negative control [3, 6]: 2 log
- efficacy (in words) ([3]; conjugate): little effect; also recorded: no efficacy; also recorded: ineffective
- efficacy (in words) ([3]; conjugate, listed as BP-ciprofloxacin): little effect; also recorded: not efficacious

SMILES: O=C(O)c1cn(C2CC2)c2cc(N3CCNCC3)c(F)cc2c1=O [ciprofloxacin, reference compound]
- activity against P. aeruginosa biofilm (in words) [1]: no inhibitory or bactericidal activity; also recorded: inactive under either acidic or physiological conditions
- bactericidal activity / reduction of CFUs against established biofilm (in words) [2]: statistically significant bactericidal activity
- MBIC90 [2, 4]: 8 µg/mL
- MBIC90 [2, 5]: 8 µg/mL
- bacterial killing [3, 7]: 90%
- reduction of bacterial load [3, 7]: 1 log
